Consider 68 sequences from the supplement of paper PMC11208160.

This data set in a line: recombinant UMI read abundance after kanamycin selection (control-corrected) (log10(CPM+1)); higher = more efficient recombination; extreme values may be limits of the assay; sequences stand for … in AGTGCAGAGAAAATCGGCCAGTTTTCTCTGCCTGCAGTCCGCATGCCGTGGGACCCCTTGGGTTCTAACCTGTTGCCTAGATTTATGCAGCGGACTGCCTTTCTCCCAAAGTGATAAACCGG…AGGTTGGTTTCACT; site = the 11-nt donor. An outline of the steps: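 Reported values are log10(CPM+1) from a pooled Escherichia coli screen of donor and donor-binding-loop pairs for the IS621 bridge recombinase. Selection used IPTG (0.07 mM) plus kanamycin, against unselected plating, each in two replicates. Recombinant UMIs were amplified across the donor–target junction, sequenced, converted to CPM, averaged over replicates and scaled by control-derived factors.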
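Further: IS621 bridge recombinase in Escherichia coli cells against a fixed T5 target plasmid.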

Regarding “TGTGCGGCATGGACCGGTTTTCCCGGTAATCCGTATTTGCT (site TTTGCGGCTAG)”, the “recombinant UMI read abundance (log10)” value is 0.00385.
With “TGTGGTCCATGGACCGGTTTTCCCGGTAATCCGTATTTGTC (site TGTGGTCCTGA)”, the “recombinant UMI read abundance (log10)” value was 0.
Regarding “TGTTACCCATGGACCGGTTTTCCCGGTAATCCGTATTTGTA (site TGTTACCCTTA)”, the “recombinant UMI read abundance (log10)” value turned out to be 0.0142.
Then “TGTTACCCATGGACCGGTTTTCCCGGTAATCCGTATTTGTA (site TGTTCCCCTTA)”, with 0.0074; and “TGTTACCCATGGACCGGTTTTCCCGGTAATCCGTATTTGTA (site TGTTGCCCTTA)”, with 0.0124.
Then “TGTTACCCATGGACCGGTTTTCCCGGTAATCCGTATTTGTA (site TGTTTCCCTTA)”, with 0; and “TGTTAGCCATGGACCGGTTTTCCCGGTAATCCGTATTTGAC (site TGTTAGCCTGT)”, with 0; and “TGTTCCCCATGGACCGGTTTTCCCGGTAATCCGTATTTGCA (site TGTTCCCCTTA)”, with 0.0177.
Then “TGTTCCCCATGGACCGGTTTTCCCGGTAATCCGTATTTGCA (site TGTTCCCCTTC)”, with 0.0115.
With “TGTTCCCCATGGACCGGTTTTCCCGGTAATCCGTATTTGCA (site TGTTCCCCTTG)”, the “recombinant UMI read abundance (log10)” value worked out at 0.256.
Next, “TGTTCCCCATGGACCGGTTTTCCCGGTAATCCGTATTTGCA (site TGTTCCCCTTT)”: 0.0133; “TGTTCCCCATGGACCGGTTTTCCCGGTAATCCGTATTTGTA (site AGTTCCCCTTA)”: 0.355.
For the sequence “TGTTCCCCATGGACCGGTTTTCCCGGTAATCCGTATTTGTA (site CGTTCCCCTTA)”, the “recombinant UMI read abundance (log10)” value came out at 0.193.
Next, “TGTTCCCCATGGACCGGTTTTCCCGGTAATCCGTATTTGTA (site GGTTCCCCTTA)”: 0.00981; “TGTTCCCCATGGACCGGTTTTCCCGGTAATCCGTATTTGTA (site TATTCCCCTTA)”: 0.0123; “TGTTCCCCATGGACCGGTTTTCCCGGTAATCCGTATTTGTA (site TCTTCCCCTTA)”: 0.0139.
Turning to “TGTTCCCCATGGACCGGTTTTCCCGGTAATCCGTATTTGTA (site TGATCCCCTTA)”, the “recombinant UMI read abundance (log10)” value is 0.0165.
Then “TGTTCCCCATGGACCGGTTTTCCCGGTAATCCGTATTTGTA (site TGCTCCCCTTA)”, with 0.377; and “TGTTCCCCATGGACCGGTTTTCCCGGTAATCCGTATTTGTA (site TGGTCCCCTTA)”, with 0.
Next, “TGTTCCCCATGGACCGGTTTTCCCGGTAATCCGTATTTGTA (site TGTACCCCTTA)”: 0.0227.
Then “TGTTCCCCATGGACCGGTTTTCCCGGTAATCCGTATTTGTA (site TGTCCCCCTTA)”, with 0.136.
In the case of “TGTTCCCCATGGACCGGTTTTCCCGGTAATCCGTATTTGTA (site TGTGCCCCTTA)”, the “recombinant UMI read abundance (log10)” value was 0.013.
Then “TGTTCCCCATGGACCGGTTTTCCCGGTAATCCGTATTTGTA (site TGTTACCCTTA)”, with 0.177; and “TGTTCCCCATGGACCGGTTTTCCCGGTAATCCGTATTTGTA (site TGTTCACCTTA)”, with 0.00592.
Next, “TGTTCCCCATGGACCGGTTTTCCCGGTAATCCGTATTTGTA (site TGTTCCACTTA)”: 0.0238; “TGTTCCCCATGGACCGGTTTTCCCGGTAATCCGTATTTGTA (site TGTTCCCCTAA)”: 0.0105; “TGTTCCCCATGGACCGGTTTTCCCGGTAATCCGTATTTGTA (site TGTTCCCCTCA)”: 0.0333.
Then “TGTTCCCCATGGACCGGTTTTCCCGGTAATCCGTATTTGTA (site TGTTCCCCTGA)”, with 0; and “TGTTCCCCATGGACCGGTTTTCCCGGTAATCCGTATTTGTA (site TGTTCCCCTTA)”, with 0.625.
Consider “TGTTCCCCATGGACCGGTTTTCCCGGTAATCCGTATTTGTA (site TGTTCCCCTTC)”, for which the “recombinant UMI read abundance (log10)” value was found to be 0.00924.
As to “TGTTCCCCATGGACCGGTTTTCCCGGTAATCCGTATTTGTA (site TGTTCCCCTTG)”, the “recombinant UMI read abundance (log10)” value came to 0.00318.
On to “TGTTCCCCATGGACCGGTTTTCCCGGTAATCCGTATTTGTA (site TGTTCCCCTTT)”, for which the “recombinant UMI read abundance (log10)” value was determined as 0.0256.
“TGTTCCCCATGGACCGGTTTTCCCGGTAATCCGTATTTGTA (site TGTTCCGCTTA)”: the “recombinant UMI read abundance (log10)” value is 0.0259.
For “TGTTCCCCATGGACCGGTTTTCCCGGTAATCCGTATTTGTA (site TGTTCCTCTTA)”, the “recombinant UMI read abundance (log10)” value was determined as 0.105.
Next, “TGTTCCCCATGGACCGGTTTTCCCGGTAATCCGTATTTGTA (site TGTTCGCCTTA)”: 0.0106; “TGTTCCCCATGGACCGGTTTTCCCGGTAATCCGTATTTGTA (site TGTTCTCCTTA)”: 0.0643; “TGTTCCCCATGGACCGGTTTTCCCGGTAATCCGTATTTGTA (site TGTTGCCCTTA)”: 0.0058.
For “TGTTCCCCATGGACCGGTTTTCCCGGTAATCCGTATTTGTA (site TGTTTCCCTTA)”, the “recombinant UMI read abundance (log10)” value turned out to be 0.381.
Then “TGTTCCCCATGGACCGGTTTTCCCGGTAATCCGTATTTGTA (site TTTTCCCCTTA)”, with 0.0217; and “TGTTGCCCATGGACCGGTTTTCCCGGTAATCCGTATTTGTA (site TGTTACCCTTA)”, with 0.032.
Turning to “TGTTGCCCATGGACCGGTTTTCCCGGTAATCCGTATTTGTA (site TGTTCCCCTTA)”, the “recombinant UMI read abundance (log10)” value was found to be 0.324.
Then “TGTTGCCCATGGACCGGTTTTCCCGGTAATCCGTATTTGTA (site TGTTGCCCTTA)”, with 0.0196; and “TGTTGCCCATGGACCGGTTTTCCCGGTAATCCGTATTTGTA (site TGTTTCCCTTA)”, with 0.0108.
Turning to “TGTTGTTCATGGACCGGTTTTCCCGGTAATCCGTATTTGAA (site TGTTGTTCTTT)”, the “recombinant UMI read abundance (log10)” value came out at 0.472.
Next, “TTAACTGCATGGACCGGTTTTCCCGGTAATCCGTATTTGTG (site TTAACTGCTCA)”: 0.697.
“TTAACTGCATGGACCGGTTTTCCCGGTAATCCGTATTTGTG (site TTACCTGCTCA)”: the “recombinant UMI read abundance (log10)” value is 0.00413.
With “TTAACTGCATGGACCGGTTTTCCCGGTAATCCGTATTTGTG (site TTAGCTGCTCA)”, the “recombinant UMI read abundance (log10)” value came out at 0.00337.
“TTAACTGCATGGACCGGTTTTCCCGGTAATCCGTATTTGTG (site TTATCTGCTCA)”: the “recombinant UMI read abundance (log10)” value came to 0.0133.
Then “TTAAGCCCATGGACCGGTTTTCCCGGTAATCCGTATTTGGT (site TTAAGCCCTAC)”, with 0.174; and “TTAATTCCATGGACCGGTTTTCCCGGTAATCCGTATTTGTT (site TTAATTCCTAA)”, with 0.0021.
As to “TTACAATCATGGACCGGTTTTCCCGGTAATCCGTATTTGGG (site TTACAATCTCC)”, the “recombinant UMI read abundance (log10)” value stood at 0.
Next, “TTACATTCATGGACCGGTTTTCCCGGTAATCCGTATTTGAC (site TTACATTCTGT)”: 1.68; “TTACCATCATGGACCGGTTTTCCCGGTAATCCGTATTTGAC (site TTACCATCTGT)”: 2.16.
Next, “TTACCTTCATGGACCGGTTTTCCCGGTAATCCGTATTTGTC (site TTACCTTCTGA)”: 0.519.
Next, “TTAGAAACATGGACCGGTTTTCCCGGTAATCCGTATTTGAT (site TTAGAAACTAT)”: 2.51.
For “TTAGAGGCATGGACCGGTTTTCCCGGTAATCCGTATTTGGA (site TTAGAGGCTTC)”, the “recombinant UMI read abundance (log10)” value amounted to 0.701.
Then “TTAGATGCATGGACCGGTTTTCCCGGTAATCCGTATTTGTG (site TTAGATGCTCA)”, with 1.52.
Next, “TTAGATGCATGGACCGGTTTTCCCGGTAATCCGTATTTGTG (site TTAGCTGCTCA)”: 0.0227; “TTAGATGCATGGACCGGTTTTCCCGGTAATCCGTATTTGTG (site TTAGGTGCTCA)”: 0.00706; “TTAGATGCATGGACCGGTTTTCCCGGTAATCCGTATTTGTG (site TTAGTTGCTCA)”: 0.00838.
Take “TTAGCCGCATGGACCGGTTTTCCCGGTAATCCGTATTTGTG (site TTAGCAGCTCA)”: the “recombinant UMI read abundance (log10)” value came out at 0.108.
Then “TTAGCCGCATGGACCGGTTTTCCCGGTAATCCGTATTTGTG (site TTAGCCGCTCA)”, with 0.564; and “TTAGCCGCATGGACCGGTTTTCCCGGTAATCCGTATTTGTG (site TTAGCGGCTCA)”, with 0.0427; and “TTAGCCGCATGGACCGGTTTTCCCGGTAATCCGTATTTGTG (site TTAGCTGCTCA)”, with 0.00693.
Then “TTAGCTCCATGGACCGGTTTTCCCGGTAATCCGTATTTGTG (site TTAGCTACTCA)”, with 0.00349.
Next, “TTAGCTCCATGGACCGGTTTTCCCGGTAATCCGTATTTGTG (site TTAGCTCCTCA)”: 0.0123; “TTAGCTCCATGGACCGGTTTTCCCGGTAATCCGTATTTGTG (site TTAGCTGCTCA)”: 0.00795.
Consider “TTAGCTCCATGGACCGGTTTTCCCGGTAATCCGTATTTGTG (site TTAGCTTCTCA)”, for which the “recombinant UMI read abundance (log10)” value was determined as 0.0128.
